Results on three compounds are retold here after patent US5310752A, “Site specific alkylating agents” (priority 1986, dated 1994).

≈ marks a conversion by molar mass, not a printed value. Counter-ions that a name gives are not always drawn. Like-named read-outs stand apart in the source and are kept apart here.

For assay [1], the system named is L1210/LPAM. Kind of assay: in vitro cytotoxicity, L-PAM resistance leukemia cells (L1210/LPAM), 4 hours treatment. Format: cell-based, murine. Particulars: for IC50: Mus musculus, L1210/LPAM, read-out: ID50 L1210/LPAM. The method, then:
(§1) The in vitro antitumor activity was evaluated by cytotoxicity studies carried out on murine L1210 leukemia cells, L-PAM resistance leukemia cells and P388 leukemia cells, as well as on HeLa cells. Cells were derived from in vivo tumors and established in cell culture. Cells were used until the tenth passage. Cytotoxicity was determined by counting surviving cells after 4 hours treatment and 48 hours growth in drug-free medium. For HeLa cells the colony inhibition test according to Cancer Chemother. Pharmacol. 1:249-254, 1978, was used. The percentage of cell growth in the treated cultures was compared with that of controls. ID50 values (doses inhibiting 50% of the cellular growth in respect to controls) were calculated on dose-response curves.
(§2) ^1) Cytotoxicity evaluated after 4 hours treatment;

Assay [2] concerns P388 leukemia cells. The assay can be described thus: in vitro cytotoxicity, P388 leukemia cells, 48 hours treatment. Format: cell-based, murine. Particulars: for IC50: Mus musculus, read-out: ID50 P388. The method, then:
as §1
^2) Cytotoxicity evaluated after 48 hours treatment;

Assay [3] relates to HeLa cells. Kind of assay: colony inhibition test, HeLa cells, 24 hours treatment. Particulars: for IC50: Homo sapiens, read-out: ID50 HeLa. The assay is classed as cell-based. The method, then: as §1
^3) Colony inhibition test carried out after 24 hours treatment.

In assay [4] the test system is L1210 leukemia cells. Kind of assay: in vitro cytotoxicity, L1210 leukemia cells, 4 hours treatment. Particulars: murine L1210 leukemia cells, cytotoxicity evaluated after 4 hours treatment. Format: cell-based. The procedure: as §1, §2
In assay [5] the test system is DNA-AT sequences. Particulars: reported in literature; cited from earlier work.
Setting [6] is: L-PAM resistance leukemia cells, cytotoxicity evaluated after 4 hours treatment.
Setting [7] is: P388 leukemia cells, cytotoxicity evaluated after 48 hours treatment.
[8] abbreviates: HeLa cells, colony inhibition test carried out after 24 hours treatment.

As for `Cn1cc(NC(=O)c2cc(NC(=O)c3cc(NC(=O)c4ccc(N(CCCl)CCCl)cc4)cn3C)cn2C)cc1C(=O)NCCC(=N)N` [FCE 24517, β-[1-methyl-4-[1-methyl-4-[1-methyl-4-[4-N,N-bis(2-chloro-ethyl)aminobenzene-1-carboxamido]pyrrole-2-carboxamido]pyrrole-2-carboxamido]pyrrole-2-carboxamido]propionamidine hydrochloride], the IC50 in assay [1] (4 h) was determined as 0.43 µg/mL; in assay [2] (P388, 48 h) it was 0.21 µg/mL; in assay [3] (HeLa, 24 h) it was 0.014 µg/mL.
Take `Cn1cc(NC(=O)c2cc(NC(=O)c3cc(NC(=O)c4cc(N(CCCl)CCCl)cs4)cn3C)cn2C)cc1C(=O)NCCC(=N)N` [FCE 24690, β-[1-methyl-4-[1-methyl-4-[1-methyl-4-[4-N,N-bis(2-chloro-ethyl)aminothiophen-2-carboxamido]pyrrole-2-carboxamido]pyrrole-2-carboxamido]pyrrole-2-carboxamido]propionamidine hydrochloride]: in assay [4], the “ID50 L1210” value worked out at 1.365 µg/mL. Moreover, in assay [1] (setting [6]), the “ID50 L1210/LPAM” value is 0.985 µg/mL. Moreover, the “ID50 P388” value in assay [2] (setting [7]) came out at 0.22 µg/mL. The “ID50 HeLa” value in assay [3] (setting [8]) was determined as 0.037 µg/mL.
`Cn1cc(NC(=O)c2cc(NC(=O)c3cc(NC=O)cn3C)cn2C)cc1C(=O)NCCC(=N)N` [distamycin A, reference compound]: the IC50 in assay [4] (Mus musculus, read-out: ID50 L1210) came out at 198 µg/mL (≈ 411 µM); in assay [1] (setting [6]), 136 µg/mL (≈ 282 µM); in assay [2] (setting [7]), 25 µg/mL (≈ 51.9 µM); in assay [3] (setting [8]) it was 3.9 µg/mL (≈ 8.1 µM). Besides, the “interaction with DNA-AT sequences” value in assay [5] is “interact reversibly and selectively with DNA-AT sequences interfering with both replication and trascription”.
